Experimental findings from US8569509B2, “Thiazole-4-carboxylic acid esters and thioesters as plant protection agents” (priority 2008, dated 2013) are described below.

Each structure is given as a SMILES string. Like-named read-outs stand apart in the source and are kept apart here.

This series is described as follows: log P determination (HPLC, calibration with unbranched alkan-2-ones). Format: physicochemical. As to the method:
The calibration is carried out using unbranched alkan-2-ones (having 3 to 16 carbon atoms) with known log P values (determination of the log P values by the retention times using linear interpolation between two successive alkanones). The lambda-maX values were determined in the maxima of the chromatographic signals using the UV spectra from 200 nm to 400 nm.

[1] abbreviates: pH 2.7, read-out: log P (pH 2.7).
[2] abbreviates: reversed-phase (C18) HPLC column, * LC-MS determination in the acidic range, pH 2.7, 0.1% aqueous formic acid and acetonitrile, linear gradient 10% to 95% acetonitrile, read-out: log p.
[3] abbreviates: * LC-MS determination in the acidic range, pH 2.7, 0.1% aqueous formic acid and acetonitrile, linear gradient 10% to 95% acetonitrile.
Where [4] appears, read: * LC-MS determination in the acidic range at pH 2.7, 0.1% aqueous formic acid and acetonitrile, linear gradient 10% to 95% acetonitrile, reversed-phase C 18.
Where [5] appears, read: reversed-phase (C18) HPLC column, * LC-MS determination in the acidic range, pH 2.7, 0.1% aqueous formic acid / acetonitrile gradient, read-out: log p.
The mark [6] stands for this setting: * LC-MS determination in the acidic range, pH 2.7, 0.1% aqueous formic acid / acetonitrile gradient.
[7] abbreviates: * LC-MS determination in the acidic range at pH 2.7, 0.1% aqueous formic acid and acetonitrile, linear gradient 10% to 95% acetonitrile.

With `Cc1cc(C(F)(F)F)nn1CC(=O)N1CCC(c2nc(C(=O)SCc3ccc(F)cc3)cs2)CC1` [compound 27, S-(4-Fluorobenzyl) 2-(1-{[5-methyl-3-(trifluoromethyl)-1H-pyrazol-1-yl]acetyl}piperidin-4-yl)-1,3-thiazole-4-carbothioate], the chromatographic logP under setting [1] amounted to 4 and the chromatographic logP under setting [2] was 4.

As for `Cc1cc(C(F)(F)F)nn1CC(=O)N1CCC(c2nc(C(=O)OCc3ccc([N+](=O)[O-])cc3)cs2)CC1` [compound 28], under setting [3], the log p is listed as 3.22*.

As to `Cc1cc(C(F)(F)F)nn1CC(=O)N1CCC(c2nc(C(=O)OCc3ccc(C(C)(C)C)cc3)cs2)CC1` [compound 29], the log p under setting [3] was 4.57*.

With `Cc1ccccc1COC(=O)c1csc(C2CCN(C(=O)Cn3nc(C(F)(F)F)cc3C)CC2)n1` [compound 31], the log p under setting [3] was 3.62*.

As to `Cc1cc(C(F)(F)F)nn1CC(=O)N1CCC(c2nc(C(=O)OC(C)c3ccc(F)cc3)cs2)CC1` (centres unmarked) [compound 41], the log p under setting [3] is given as 3.60*.

For the molecule `CCC(OC(=O)c1csc(C2CCN(C(=O)Cn3nc(C(F)(F)F)cc3C)CC2)n1)c1ccc(F)cc1` (centres unmarked) [compound 42], under setting [3], the log p is 3.89*.

In the case of `Cc1cc(C(F)(F)F)nn1CC(=O)N1CCC(c2nc(C(=O)OCCc3ccc(F)cc3)cs2)CC1` [compound 43], the log p under setting [3] is 3.55*.

For `Cc1cc(C(F)(F)F)nn1CC(=O)N1CCC(c2nc(C(=O)Oc3ccccc3)cs2)CC1` [compound 44], under setting [3], the log p was 3.20*.

As for `Cc1cc(C(F)(F)F)nn1CC(=O)N1CCC(c2nc(C(=O)Oc3ccc(F)cc3)cs2)CC1` [compound 45], the log p under setting [3] is on record as 3.26*.

As to `Cc1cc(C(F)(F)F)nn1CC(=O)N1CCC(c2nc(C(=O)SC3CCCCC3)cs2)CC1` [compound 76, S-Cyclohexyl 2-(1-{[5-methyl-3-(trifluoromethyl)-1H-pyrazol-1-yl]acetyl}piperidin-4-yl)-1,3-thiazole-4-carbothioate], the chromatographic logP reads like this: under setting [1], 4.51; under setting [2], 4.51.

For the molecule `Cc1cc(C(F)(F)F)nn1CC(=O)N1CCC(c2nc(C(=O)Sc3cccc4ccccc34)cs2)CC1` [compound 77, S-1-Naphthyl 2-(1-{[5-methyl-3-(trifluoromethyl)-1H-pyrazol-1-yl]acetyl}piperidin-4-yl)-1,3-thiazole-4-carbothioate], the chromatographic logP by setting is: under setting [1], 4.22; under setting [2], 4.22.

Turning to `Cc1cc(C(F)(F)F)nn1CC(=O)N1CCC(c2nc(C(=O)OCc3ccccn3)cs2)CC1` [compound 80], under setting [3], the log p is 2.21*.

In the case of `Cc1cc(C(F)(F)F)nn1CC(=O)N1CCC(c2nc(C(=O)OCc3cccs3)cs2)CC1` [compound 81], the log p under setting [3] was 3.22*.

For `C[Si](C)(C)COC(=O)c1csc(C2CCN(C(=O)Cn3ccc(C(F)(F)F)n3)CC2)n1` [compound 84], the log p under setting [3] was 3.53*.

`O=C(OC1CCCCC1)c1csc(C2CCN(C(=O)Cn3ccc(C(F)(F)F)n3)CC2)n1` [compound 85]: the log p under setting [3] was 3.42*.

For the molecule `O=C(OC1CCCc2ccccc21)c1csc(C2CCN(C(=O)Cn3ccc(C(F)(F)F)n3)CC2)n1` (centres unmarked) [compound 89], under setting [3], the log p is 3.68*.

With `O=C(OC1CCc2ccccc21)c1csc(C2CCN(C(=O)Cn3ccc(C(F)(F)F)n3)CC2)n1` (centres unmarked) [compound 91], the log p under setting [3] was 3.37*.

As to `O=C(Oc1cccc2ccccc12)c1csc(C2CCN(C(=O)Cn3ccc(C(F)(F)F)n3)CC2)n1` [compound 92], the log p under setting [3] was 3.42*.

On to `O=C(OCc1ccccc1)c1csc(C2CCN(C(=O)Cn3ccc(C(F)(F)F)n3)CC2)n1` [compound 94], for which the log p under setting [3] is 2.99*.

For the molecule `O=C(OCc1ccc(F)cc1)c1csc(C2CCN(C(=O)Cn3ccc(C(F)(F)F)n3)CC2)n1` [compound 95], the log p under setting [3] was 3.04*.

Take `CC(OC(=O)c1csc(C2CCN(C(=O)Cn3ccc(C(F)(F)F)n3)CC2)n1)c1ccc(F)cc1` (centres unmarked) [compound 124]: under setting [3], the log p is reported as 3.18*.

On to `O=C(OCCc1ccc(F)cc1)c1csc(C2CCN(C(=O)Cn3ccc(C(F)(F)F)n3)CC2)n1` [compound 126], for which the log p under setting [4] is listed as 3.27*.

For the molecule `O=C(Oc1ccccc1)c1csc(C2CCN(C(=O)Cn3ccc(C(F)(F)F)n3)CC2)n1` [compound 127], the log p under setting [4] is 2.85*.

For the molecule `O=C(Oc1ccc(F)cc1)c1csc(C2CCN(C(=O)Cn3ccc(C(F)(F)F)n3)CC2)n1` [compound 128], the log p under setting [4] is on record as 2.89*.

For `O=C(OCc1ccncc1)c1csc(C2CCN(C(=O)Cn3ccc(C(F)(F)F)n3)CC2)n1` [compound 142], the log p under setting [4] was 1.32*.

Regarding `O=C(OCc1cccs1)c1csc(C2CCN(C(=O)Cn3ccc(C(F)(F)F)n3)CC2)n1` [compound 143], under setting [4], the log p is 2.85*.

`Cc1c(Cl)c(C(F)(F)F)nn1CC(=O)N1CCC(c2nc(C(=O)OC[Si](C)(C)C)cs2)CC1` [compound 144]: the log p under setting [4] is recorded as 4.28*.

For the molecule `Cc1c(Cl)c(C(F)(F)F)nn1CC(=O)N1CCC(c2nc(C(=O)OC3CCCCC3)cs2)CC1` [compound 145], the log p under setting [4] is recorded as 4.17*.

With `Cc1c(Cl)c(C(F)(F)F)nn1CC(=O)N1CCC(c2nc(C(=O)OC3CCCC3)cs2)CC1` [compound 146], the log p under setting [4] is 3.84*.

As for `Cc1c(Cl)c(C(F)(F)F)nn1CC(=O)N1CCC(c2nc(C(=O)OC3CCCc4ccccc43)cs2)CC1` (centres unmarked) [compound 149], the log p under setting [4] is reported as 4.40*.

For the molecule `Cc1c(Cl)c(C(F)(F)F)nn1CC(=O)N1CCC(c2nc(C(=O)OC3CCCC4CCCCC43)cs2)CC1` (centres unmarked) [compound 150], under setting [4], the log p was 5.44*.

Regarding `Cc1c(Cl)c(C(F)(F)F)nn1CC(=O)N1CCC(c2nc(C(=O)OC3CCc4ccccc43)cs2)CC1` (centres unmarked) [compound 151], the log p under setting [4] is 4.17*.

For `Cc1c(Cl)c(C(F)(F)F)nn1CC(=O)N1CCC(c2nc(C(=O)Oc3cccc4ccccc34)cs2)CC1` [compound 152], under setting [4], the log p is recorded as 4.17*.

Take `Cc1c(Cl)c(C(F)(F)F)nn1CC(=O)N1CCC(c2nc(C(=O)Oc3ccc4ccccc4c3)cs2)CC1` [compound 153]: the log p under setting [4] is reported as 4.17*.

On to `Cc1c(Cl)c(C(F)(F)F)nn1CC(=O)N1CCC(c2nc(C(=O)OCc3ccccc3)cs2)CC1` [compound 154], for which, under setting [4], the log p is recorded as 3.73*.

As to `Cc1c(Cl)c(C(F)(F)F)nn1CC(=O)N1CCC(c2nc(C(=O)OCc3ccc(F)cc3)cs2)CC1` [compound 155], the log p under setting [4] is reported as 3.73*.

For `Cc1c(Cl)c(C(F)(F)F)nn1CC(=O)N1CCC(c2nc(C(=O)OC(C)c3ccc(F)cc3)cs2)CC1` (centres unmarked) [compound 184], the log p under setting [4] is recorded as 3.89*.

Regarding `Cc1c(Cl)c(C(F)(F)F)nn1CC(=O)N1CCC(c2nc(C(=O)OCCc3ccc(F)cc3)cs2)CC1` [compound 186], the log p under setting [4] is listed as 3.94*.

Turning to `Cc1c(Cl)c(C(F)(F)F)nn1CC(=O)N1CCC(c2nc(C(=O)Oc3ccccc3)cs2)CC1` [compound 187], the log p under setting [4] was 3.58*.

In the case of `Cc1c(Cl)c(C(F)(F)F)nn1CC(=O)N1CCC(c2nc(C(=O)Oc3ccc(F)cc3)cs2)CC1` [compound 188], under setting [4], the log p is 3.63*.

With `Cc1c(Cl)c(C(F)(F)F)nn1CC(=O)N1CCC(c2nc(C(=O)OCc3ccncc3)cs2)CC1` [compound 217], the log p under setting [4] is reported as 1.82*.

As for `Cc1c(Cl)c(C(F)(F)F)nn1CC(=O)N1CCC(c2nc(C(=O)OCc3cccs3)cs2)CC1` [compound 218], the log p under setting [4] was 3.58*.

`Cc1cc(C(F)(F)F)nn1CC(=O)N1CCC(c2nc(C(=O)OC3CCCCC3)cs2)CC1` [compound 220, Cyclohexyl 2-(1-{[5-methyl-3-(trifluoromethyl)-1H-pyrazol-1-yl]acetyl}piperidin-4-yl)-1,3-thiazole-4-carboxylate]: the chromatographic logP runs as follows: under setting [1], 3.74; (reversed-phase C18 HPLC column, * LC-MS determination in the acidic range at pH 2.7, 0.1% aqueous formic acid and acetonitrile, linear gradient 10% to 95% acetonitrile, reversed-phase C 18, read-out: log p) 3.74.

`Cc1cc(C(F)(F)F)nn1CC(=O)N1CCC(c2nc(C(=O)OC3CCCc4ccccc43)cs2)CC1` (centres unmarked) [compound 224, 1,2,3,4-Tetrahydronaphthalen-1-yl 2-(1-{[5-methyl-3-(trifluoromethyl)-1H-pyrazol-1-yl]acetyl}piperidin-4-yl)-1,3-thiazole-4-carboxylate]: the chromatographic logP runs as follows: under setting [1], 4.01; under setting [5], 4.01.

As to `Cc1cc(C(F)(F)F)nn1CC(=O)N1CCC(c2nc(C(=O)Oc3cccc4ccccc34)cs2)CC1` [compound 227, 1-Naphthyl 2-(1-{[5-methyl-3-(trifluoromethyl)-1H-pyrazol-1-yl]acetyl}piperidin-4-yl)-1,3-thiazole-4-carboxylate], the chromatographic logP was 3.75 under setting [1] and 3.75 under setting [5].

Consider `Cc1cc(C(F)(F)F)nn1CC(=O)N1CCCC(c2nc(C(=O)OCc3ccncc3)cs2)C1` (centres unmarked) [compound 292], for which the log p under setting [6] is on record as 1.51*.

As to `Cc1cc(C(F)(F)F)nn1CC(=O)N1CCCC(c2nc(C(=O)OCc3cccs3)cs2)C1` (centres unmarked) [compound 293], the log p under setting [6] was 3.23*.

Take `Cc1cc(C)n(C(C)(C)C(=O)N2CCC(c3nc(C(=O)OC4CCCc5ccccc54)cs3)CC2)n1` (centres unmarked) [compound 368]: under setting [7], the log p is reported as 4.04*.

With `Cc1cc(C)n(C(C)(C)C(=O)N2CCC(c3nc(C(=O)OC[Si](C)(C)C)cs3)CC2)n1` [compound 369], under setting [7], the log p is reported as 3.84*.

For `Cc1cc(C)n(C(C)(C)C(=O)N2CCC(c3nc(C(=O)OC4CCCCC4)cs3)CC2)n1` [compound 370], the log p under setting [7] is given as 3.78*.
